US9376429B2, “Sodium channel blockers, preparation method thereof and use thereof” (Daewoong Pharmaceutical Co., Ltd., priority 2012, dated 2016)

Biological target: T1, sodium ion channel (Nav1.7) (Homo sapiens, UniProt Q15858)
T1 construct: host or cells: HEK293
Experiment: Blocking effect against sodium ion channel (Nav1.7), IonFlux16 auto patch clamp, hNav1.7 HEK293 cells
Assay type: cell-based
Conditions: peak current after 50 seconds treatment, eight concentrations
Method: In order to measure the activities of the inventive compounds as antagonists, an experiment on a blocking effect against the sodium ion channel (Nav1.7) was carried out as follows.
The hNav1.7 HEK293 cell line used was a cell line having a human sodium ion channel 1.7 gene (type IX voltage-gated sodium channel alpha subunit) in human embryonic kidney (HEK) 293 cells and was purchased from Millipore. The medium used was prepared by adding 1% 100×NEAA and 10% heat inactivated FBS to DMEM F-12 and adding 1% P/S as an antibiotic thereto. G-418 as a […] was added during subculture, and the hNav1.7 HEK293 cells were cultured to a confluence of about 80% in a T75 flask in a 5% CO2 incubator at 37° C. for 2 or 3 days and detached from the flask by treatment with 0.25% trypsin solution. Then, the cells were collected by centrifugation and used in the experiment.
The compounds prepared in the Examples of the present invention were dissolved in dimethyl sulfoxide (DMSO) and used in the experiment. 90 mM and 10 mM DMSO stock solutions were prepared from each of the compounds and diluted in an extracellular solution (4 mM KCl, 138 mM NaCl, 1 mM MgCl2, 1.8 mM CaCl2, 5.6 mM glucose, 10 mM HEPES, pH 7.45) at various concentrations so that the final concentration of each compound in DMSO was 0.3% or less.
To measure the sodium ion channel blocking effect, an IonFlux16 Auto patch clamp system (Fluxion, Inc.) and a plate for exclusive use were used. The cells were distributed in an extracellular solution (4 mM KCl, 138 mM NaCl, 1 mM MgCl2, 1.8 mM CaCl2, 5.6 mM glucose, 10 mM HEPES, pH 7.45), and then dispensed in the specified region of the plate, and each of the prepared compound samples was diluted at various concentrations, and then dispensed in the specified region of the plate.
Specifically, eight concentrations per compound were set, and percent inhibition was determined by calculating the percentage of inhibition of the peak current, generated after treating the cells with each concentration of the compound for 50 seconds, relative to the peak current generated before treatment with the compound, and the IC50 value was calculated using the Sigma plot program. In Table 2 below, the percent inhibition of Nav1.7 is rated as follows: […]

T1 sequence (Q15858 whole entry): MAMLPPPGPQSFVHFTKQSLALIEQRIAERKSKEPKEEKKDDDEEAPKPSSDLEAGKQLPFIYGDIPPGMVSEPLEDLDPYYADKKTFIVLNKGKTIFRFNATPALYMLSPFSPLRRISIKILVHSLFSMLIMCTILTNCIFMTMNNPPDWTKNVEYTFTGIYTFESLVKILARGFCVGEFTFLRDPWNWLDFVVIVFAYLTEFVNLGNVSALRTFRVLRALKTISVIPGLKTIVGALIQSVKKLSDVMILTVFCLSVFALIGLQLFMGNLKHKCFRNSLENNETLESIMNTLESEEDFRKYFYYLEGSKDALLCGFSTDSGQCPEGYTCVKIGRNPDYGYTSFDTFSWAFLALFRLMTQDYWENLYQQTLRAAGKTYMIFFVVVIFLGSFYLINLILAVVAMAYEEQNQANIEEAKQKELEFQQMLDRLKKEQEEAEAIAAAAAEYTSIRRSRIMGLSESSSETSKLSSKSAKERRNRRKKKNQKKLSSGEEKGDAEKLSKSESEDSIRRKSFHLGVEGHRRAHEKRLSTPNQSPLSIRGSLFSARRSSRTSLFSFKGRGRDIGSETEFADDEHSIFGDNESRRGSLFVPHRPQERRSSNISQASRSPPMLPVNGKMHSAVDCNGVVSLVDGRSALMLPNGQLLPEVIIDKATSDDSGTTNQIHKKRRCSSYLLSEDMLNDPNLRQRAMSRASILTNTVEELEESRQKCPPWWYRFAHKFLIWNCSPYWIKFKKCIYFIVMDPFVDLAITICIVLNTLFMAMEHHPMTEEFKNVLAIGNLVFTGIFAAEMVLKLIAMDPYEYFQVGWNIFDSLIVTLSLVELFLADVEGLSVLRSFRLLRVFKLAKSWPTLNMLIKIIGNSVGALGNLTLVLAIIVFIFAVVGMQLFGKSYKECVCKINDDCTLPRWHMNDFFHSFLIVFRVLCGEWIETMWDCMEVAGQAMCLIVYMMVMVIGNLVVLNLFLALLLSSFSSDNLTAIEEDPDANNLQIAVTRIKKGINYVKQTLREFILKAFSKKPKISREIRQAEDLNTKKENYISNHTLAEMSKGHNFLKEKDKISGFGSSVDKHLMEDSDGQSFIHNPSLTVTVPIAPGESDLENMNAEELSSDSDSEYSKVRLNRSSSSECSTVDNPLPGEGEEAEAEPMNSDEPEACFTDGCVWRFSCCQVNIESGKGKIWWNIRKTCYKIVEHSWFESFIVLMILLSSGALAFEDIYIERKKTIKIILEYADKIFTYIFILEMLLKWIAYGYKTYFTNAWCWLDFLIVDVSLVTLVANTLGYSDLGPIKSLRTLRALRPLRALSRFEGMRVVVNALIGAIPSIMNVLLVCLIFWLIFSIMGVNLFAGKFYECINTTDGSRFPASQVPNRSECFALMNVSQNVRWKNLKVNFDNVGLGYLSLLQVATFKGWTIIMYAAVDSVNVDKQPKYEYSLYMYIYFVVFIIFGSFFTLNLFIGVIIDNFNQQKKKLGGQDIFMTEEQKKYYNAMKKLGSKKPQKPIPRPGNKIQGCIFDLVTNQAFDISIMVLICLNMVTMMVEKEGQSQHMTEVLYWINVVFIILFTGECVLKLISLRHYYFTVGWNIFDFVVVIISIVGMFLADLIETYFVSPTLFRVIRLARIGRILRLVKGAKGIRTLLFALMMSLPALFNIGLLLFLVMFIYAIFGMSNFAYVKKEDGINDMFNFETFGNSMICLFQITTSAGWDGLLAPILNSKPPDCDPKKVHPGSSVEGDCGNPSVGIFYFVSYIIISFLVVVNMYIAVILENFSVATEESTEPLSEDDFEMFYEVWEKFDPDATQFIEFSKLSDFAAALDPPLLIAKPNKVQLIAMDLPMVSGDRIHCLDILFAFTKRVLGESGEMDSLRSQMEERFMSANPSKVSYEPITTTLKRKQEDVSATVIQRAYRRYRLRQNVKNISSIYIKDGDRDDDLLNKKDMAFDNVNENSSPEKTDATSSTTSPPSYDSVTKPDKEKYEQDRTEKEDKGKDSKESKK

| Structure (SMILES) | IC50 [nM] |
| --- | --- |
| N#Cc1cc(S(=O)(=O)Nc2nccs2)ccc1Oc1cnc(-c2ccccc2)cc1-c1ccoc1 [Example 1, 3-cyano-4-(4-(furan-3-yl)-6-phenylpyridin-3-yloxy)-N-(thiazol-2-yl)benzenesolfonamide] | < 50 |
| Cn1nccc1-c1cc(-c2ccccc2)ncc1Oc1ccc(S(=O)(=O)Nc2nccs2)cc1C#N [Example 2] | > 100 |
| N#Cc1cc(S(=O)(=O)Nc2ncns2)ccc1Oc1cnc(-c2ccccc2)cc1-c1ccoc1 [Example 3, 3-cyano-4-(4-(furan-3-yl)-6-phenylpyridin-3-yloxy)-N-(1,2,4-thiadiazol-5-yl)benzenesulfonamide] | < 50 |
| Cn1nccc1-c1cc(-c2ccccc2)ncc1Oc1ccc(S(=O)(=O)Nc2ncns2)cc1C#N [Example 4, 3-cyano-4-((4-(1-methyl-1H-pyrazol-5-yl)-6-phenylpyridin-3-yl)oxy)-N-(1,2,4-thiadiazol-5-yl)benzenesulfonamide] | 51 to 100 |
| N#Cc1cc(S(=O)(=O)Nc2nccs2)ccc1Oc1cnc(-c2cccc(F)c2)cc1-c1ccoc1 [Example 5, 3-cyano-4-(6-(3-fluorophenyl)-4-(furan-3-yl)pyridin-3-yloxy)-N-(thiazol-2-yl)benzenesulfonamide] | < 50 |
| N#Cc1cc(S(=O)(=O)Nc2nccs2)ccc1Oc1cnc(-c2ccccc2F)cc1-c1ccoc1 [Example 6, 3-cyano-4-(6-(2-fluorophenyl)-4-(furan-3-yl)pyridin-3-yloxy)-N-(thiazol-2-yl)benzenesulfonamide] | > 100 |
| N#Cc1cc(S(=O)(=O)Nc2nccs2)ccc1Oc1cnc(-c2ccc(F)cc2)cc1-c1ccoc1 [Example 7, 3-cyano-4-(6-(4-fluorophenyl)-4-(furan-3-yl)pyridin-3-yloxy)-N-(thiazol-2-yl)benzenesulfonamide] | 51 to 100 |
| N#Cc1cc(S(=O)(=O)Nc2nccs2)ccc1Oc1cnc(-c2cccc(C(F)(F)F)c2)cc1-c1ccoc1 [Example 8, 3-cyano-4-(4-(furan-3-yl)-6-(3-(trifluoromethyl)phenyl)pyridin-3-yloxy)-N-(thiazol-2-yl)benzenesulfonamide] | > 100 |
| N#Cc1cc(S(=O)(=O)Nc2nccs2)ccc1Oc1cnc(-c2ccnc(F)c2)cc1-c1ccoc1 [Example 9, 3-cyano-4-(2′-fluoro-4-(furan-3-yl)-2,4′-bipyridin-5-yloxy)-N-(thiazol-2-yl)benzenesulfonamide] | 51 to 100 |
| N#Cc1cc(S(=O)(=O)Nc2nccs2)ccc1Oc1cnc(-c2cccnc2F)cc1-c1ccoc1 [Example 10, 3-cyano-4-(2′-fluoro-4-(furan-3-yl)-2,3′-bipyridin-5-yloxy)-N-(thiazol-2-yl)benzenesulfonamide] | 51 to 100 |
| N#Cc1cc(S(=O)(=O)Nc2nccs2)ccc1Oc1cnc(-c2ccc(F)nc2)cc1-c1ccoc1 [Example 11, 3-cyano-4-(6′-fluoro-4-(furan-3-yl)-2,3′-bipyridin-5-yloxy)-N-(thiazol-2-yl)benzenesulfonamide] | 51 to 100 |
| N#Cc1cc(S(=O)(=O)Nc2nccs2)ccc1Oc1cnc(-c2ccc(F)nc2F)cc1-c1ccoc1 [Example 12, 3-cyano-4-(2′,6′-difluoro-4-(furan-3-yl)-2,3′-bipyridin-5-yloxy)-N-(thiazol-2-yl)benzenesulfonamide] | < 50 |
| N#Cc1cc(S(=O)(=O)Nc2nccs2)ccc1Oc1cnc(-c2cccnc2)cc1-c1ccoc1 [Example 13, 3-cyano-4-(4-(furan-3-yl)-2,3′-bipyridin-5-yloxy)-N-(thiazol-2-yl)benzenesulfonamide] | > 100 |
| N#Cc1cc(S(=O)(=O)Nc2nccs2)ccc1Oc1cnc(-c2ccncc2)cc1-c1ccoc1 [Example 14, 3-cyano-4-(4-(furan-3-yl)-2,4′-bipyridin-5-yloxy)-N-(thiazol-2-yl)benzenesulfonamide] | > 100 |
| N#Cc1cc(S(=O)(=O)Nc2nccs2)ccc1Oc1cnc(-c2cncnc2)cc1-c1ccoc1 [Example 15, 3-cyano-4-(4-(furan-3-yl)-6-(pyrimidin-5-yl)pyridin-3-yloxy)-N-(thiazol-2-yl)benzenesulfonamide] | > 100 |
| N#Cc1cc(S(=O)(=O)Nc2nccs2)ccc1Oc1cnc(-c2ccoc2)cc1-c1ccoc1 [Example 16, 3-cyano-4-((4,6-di(furan-3-yl)pyridin-3-yl)oxy)-N-(thiazol-2-yl)benzenesulfonamide] | < 50 |
| O=S(=O)(Nc1nccs1)c1ccc(Oc2cnc(-c3ccoc3)cc2-c2ccoc2)c(F)c1 [Example 17, 4-((4,6-di(furan-3-yl)pyridin-3-yl)oxy)-3-fluoro-N-(thiazol-2-yl)benzenesulfonamide] | > 100 |
| Cn1nccc1-c1cc(-c2cccnc2F)ncc1Oc1ccc(S(=O)(=O)Nc2nccs2)cc1C#N [Example 18, 3-cyano-4-((2′-fluoro-4-(1-methyl-1H-pyrazol-5-yl)-[2,3′-bipyridin]-5-yl)oxy)-N-(thiazol-2-yl)benzenesulfonamide] | > 100 |
| Cn1nccc1-c1cc(-c2ccc(F)nc2)ncc1Oc1ccc(S(=O)(=O)Nc2nccs2)cc1C#N [Example 19, 3-cyano-4-((6′-fluoro-4-(1-methyl-1H-pyrazol-5-yl)-[2,3′-bipyridin]-5-yl)oxy)-N-(thiazol-2-yl)benzenesulfonamide] | > 100 |
| N#Cc1cc(S(=O)(=O)Nc2nccs2)ccc1Oc1cnc(-c2ccsc2)cc1-c1ccoc1 [Example 20, 3-cyano-4-((4-(furan-3-yl)-6-(thiophen-3-yl)pyridin-3-yl)oxy)-N-(thiazol-2-yl)benzenesulfonamide] | > 100 |
| Cn1nccc1-c1cc(-c2cccnc2)ncc1Oc1ccc(S(=O)(=O)Nc2nccs2)cc1F [Example 21, 3-fluoro-4-((4-(1-methyl-1H-pyrazol-5-yl)-[2,3′-bipyridin]-5-yl)oxy)-N-(thiazol-2-yl)benzenesulfonamide] | > 100 |
| Cn1nccc1-c1cc(-c2ccsc2)ncc1Oc1ccc(S(=O)(=O)Nc2nccs2)cc1F [Example 22, 3-fluoro-4-((4-(1-methyl-1H-pyrazol-5-yl)-6-(thiophen-3-yl)pyridin-3-yl)oxy)-N-(thiazol-2-yl)benzenesulfonamide] | 51 to 100 |
| Cn1nccc1-c1cc(-c2ccc(F)cc2)ncc1Oc1ccc(S(=O)(=O)Nc2nccs2)cc1C#N [Example 23, 3-cyano-4-((6-(4-fluorophenyl)-4-(1-methyl-1H-pyrazol-5-yl)pyridin-3-yl)oxy)-N-(thiazol-2-yl)benzenesulfonamide] | > 100 |
| Cn1nccc1-c1cc(-c2ccccc2F)ncc1Oc1ccc(S(=O)(=O)Nc2nccs2)cc1C#N [Example 24, 3-cyano-4-((6-(2-fluorophenyl)-4-(1-methyl-1H-pyrazol-5-yl)pyridin-3-yl)oxy)-N-(thiazol-2-yl)benzenesulfonamide] | > 100 |
| Cn1nccc1-c1cc(-c2ccoc2)ncc1Oc1ccc(S(=O)(=O)Nc2nccs2)cc1C#N [Example 25, 3-cyano-4-((6-(furan-3-yl)-4-(1-methyl-1H-pyrazol-5-yl)pyridin-3-yl)oxy)-N-(thiazol-2-yl)benzenesulfonamide] | > 100 |
| Cn1nccc1-c1cc(-c2cccc(F)c2)ncc1Oc1ccc(S(=O)(=O)Nc2nccs2)cc1C#N [Example 26, 3-cyano-4-((6-(3-fluorophenyl)-4-(1-methyl-1H-pyrazol-5-yl)pyridin-3-yl)oxy)-N-(thiazol-2-yl)benzenesulfonamide] | 51 to 100 |
